In the oligonucleotide strings, read from the 5' end, every base follows the letter of its sugar. An asterisk marks phosphorothioate; unmarked linkages are phosphodiester. Other units and linkages are bracketed, terminal groups are in braces. A string of capitals states the bases alone. e = 2'-O-(2-methoxyethyl) (MOE); [5mC] = 5-methylcytosine
Assays:
adipocytes = test: Triglyceride accumulation assay in adipocytes; format: cell-based, human; details: differentiating adipocytes transfected with oligomeric compound; Table 75
HuVECs = test: Endothelial tube formation assay in HuVECs; details: 75 nM oligomeric compound
HSL = HSL mRNA expression in adipocytes (real-time PCR); format: cell-based, human; details: differentiating adipocytes transfected with oligomeric compound; Table 75
Glut4 = Glut4 mRNA expression in adipocytes (real-time PCR); format: cell-based, human; details: differentiating adipocytes transfected with oligomeric compound; Table 75

Substance	TG (triglyceride accumulation) (adipocytes)	% Activity Relative to UTC (tube formation) (HuVECs; Table 56) [%]	HSL mRNA (HSL)	GLUT4 mRNA (Glut4)	% Activity Relative to UTC (tube formation) (HuVECs; Table 58) [%]	% Activity Relative to UTC (tube formation) (HuVECs; Table 59) [%]
327873 (antisense e[5mC]*eT*eA*e[5mC]*e[5mC]*eA*eT*eA*eG*eG*eG*eT*eA*eA*eA*eA*e[5mC]*e[5mC]*eA*e[5mC]*eT) [compound 327873]	105 percentage of untreated control (UTC)	100.0	116 percentage of untreated control (UTC)	106 percentage of untreated control (UTC)		
327924 (antisense eG*e[5mC]*eA*eA*eG*e[5mC]*e[5mC]*e[5mC]*eA*eG*eA*e[5mC]*e[5mC]*eG*e[5mC]*eA*eA*eA*eA*eA*eG) [compound 327924]					88.9	
327935 (antisense e[5mC]*eT*eA*e[5mC]*e[5mC]*eT*eG*e[5mC]*eA*e[5mC]*eT*eA*eT*eA*eA*eG*e[5mC]*eA*e[5mC]*eT*eT*eT*eA) [compound 327935]	41 percentage of untreated control (UTC)		61 percentage of untreated control (UTC)	47 percentage of untreated control (UTC)	74.1	
327936 (antisense eA*e[5mC]*eA*eG*e[5mC]*eT*eG*eG*eT*eT*eG*eA*eA*eG*eG*eG*eG*eA*e[5mC]*e[5mC]*eA*eA) [compound 327936]	23 percentage of untreated control (UTC)		40 percentage of untreated control (UTC)	6 percentage of untreated control (UTC)	51.9	
327940 (antisense eG*eA*eA*e[5mC]*eA*eG*eG*eT*eA*eG*eT*e[5mC]*eT*eG*eA*eA*e[5mC]*eA*e[5mC]*eT*eG*eG*eG) [compound 327940]	62 percentage of untreated control (UTC)		67 percentage of untreated control (UTC)	43 percentage of untreated control (UTC)	59.3	
327944 (antisense eA*eA*eA*eG*eT*eG*eT*e[5mC]*eA*eG*eA*eT*eA*e[5mC]*eG*eG*eT*eG*eT*eG*eG) [compound 327944]	38 percentage of untreated control (UTC)		55 percentage of untreated control (UTC)	28 percentage of untreated control (UTC)	37.0	
327945 (antisense e[5mC]*eT*eG*eT*eT*e[5mC]*e[5mC]*eT*eG*e[5mC]*eT*eG*eA*eA*e[5mC]*eT*eG*eA*eG*e[5mC]*e[5mC]*eA) [compound 327945]	48 percentage of untreated control (UTC)		41 percentage of untreated control (UTC)	26 percentage of untreated control (UTC)	59.3	
327946 (antisense eA*eG*eG*e[5mC]*eG*eA*eA*eG*eG*eA*eT*eG*eA*e[5mC]*eA*eA*eA*eG*eG*eG*eA*eA) [compound 327946]	82 percentage of untreated control (UTC)		76 percentage of untreated control (UTC)	68 percentage of untreated control (UTC)	51.9	
327949 (antisense e[5mC]*eA*e[5mC]*eA*eA*eA*eT*eT*e[5mC]*eG*eG*eA*eT*e[5mC]*eT*eA*e[5mC]*eA*eG*eG*eG*eT*eA) [compound 327949]	43 percentage of untreated control (UTC)		49 percentage of untreated control (UTC)	20 percentage of untreated control (UTC)		66.7
327950 (antisense eT*e[5mC]*eA*eG*eT*eT*eT*eT*eG*e[5mC]*eA*eT*eA*eG*eA*eT*eT*eT*eG*e[5mC]*eA*e[5mC]*eA) [compound 327950]	125 percentage of untreated control (UTC)		94 percentage of untreated control (UTC)	104 percentage of untreated control (UTC)		73.3
327952 (antisense e[5mC]*eT*eA*e[5mC]*eG*e[5mC]*eG*eT*eA*eT*eT*e[5mC]*eT*eT*eA*eA*eG*e[5mC]*eA*eA*eT*eA) [compound 327952]	93 percentage of untreated control (UTC)		64 percentage of untreated control (UTC)	61 percentage of untreated control (UTC)		53.3
327957 (antisense e[5mC]*eA*e[5mC]*eA*eA*eG*eT*eT*e[5mC]*eG*eG*eA*eT*e[5mC]*eT*eA*e[5mC]*eG*eG*eG*eT*eT) [compound 327957]	29 percentage of untreated control (UTC)		15 percentage of untreated control (UTC)	11 percentage of untreated control (UTC)		66.7
327958 (antisense e[5mC]*e[5mC]*eG*eG*e[5mC]*eT*eG*e[5mC]*eA*eA*e[5mC]*eA*e[5mC]*eA*eA*eG*eA*e[5mC]*eA*e[5mC]*eG*eA) [compound 327958]	28 percentage of untreated control (UTC)		5 percentage of untreated control (UTC)	5 percentage of untreated control (UTC)		40.0
327959 (antisense e[5mC]*eA*eG*e[5mC]*e[5mC]*eG*e[5mC]*eT*eG*eT*e[5mC]*eA*e[5mC]*eA*e[5mC]*eG*e[5mC]*eA*e[5mC]*eA*eG) [compound 327959]	33 percentage of untreated control (UTC)		11 percentage of untreated control (UTC)	152 percentage of untreated control (UTC)		40.0
327961 (antisense eG*eG*eG*eG*eT*eA*eT*eT*eT*eG*eA*e[5mC]*eA*eA*eA*e[5mC]*eT*eG*eA*e[5mC]*eA) [compound 327961]	77 percentage of untreated control (UTC)		88 percentage of untreated control (UTC)	101 percentage of untreated control (UTC)		53.3
327963 (antisense eA*eA*e[5mC]*e[5mC]*eT*eA*eT*e[5mC]*e[5mC]*eT*eG*eA*eA*eT*eT*eA*e[5mC]*eT*eT*eG*eA*eA) [compound 327963]	124 percentage of untreated control (UTC)		89 percentage of untreated control (UTC)	91 percentage of untreated control (UTC)		93.3
327964 (antisense e[5mC]*e[5mC]*eA*eA*eG*eT*eT*e[5mC]*eT*eG*eT*e[5mC]*eA*eT*eG*e[5mC]*eA*e[5mC]*eT*eG*eA) [compound 327964]	60 percentage of untreated control (UTC)		102 percentage of untreated control (UTC)	114 percentage of untreated control (UTC)		86.7
327965 (antisense eA*eT*e[5mC]*eA*e[5mC]*eA*eT*eA*eG*eG*eA*eA*eT*eA*eA*eA*eA*eA*eG*e[5mC]*e[5mC]*eA*eT*eA) [compound 327965]	116 percentage of untreated control (UTC)		84 percentage of untreated control (UTC)	88 percentage of untreated control (UTC)		100.0
327971 (antisense eG*eG*eA*eA*eA*eT*e[5mC]*e[5mC]*e[5mC]*eT*eG*eG*e[5mC]*eA*eA*eT*eG*eT*eG*eA*eT) [compound 327971]	45 percentage of untreated control (UTC)		38 percentage of untreated control (UTC)	60 percentage of untreated control (UTC)		

Reference: patent US8178506B2, “Oligomeric compounds and compositions for use in modulation of small non-coding RNAs” (Regulus Therapeutics Inc., priority 2003, dated 2012)
